Measured values published in paper PMC10301393 (Viruses, 2023).
≈ marks a conversion by molar mass, not a printed value.

How the values were obtained:
SARS-CoV = settings: Vero E6 cells; cited from earlier work
MRC-5 cells = assay: Cell morphology in photonic microscope observation; format: cell-based, human; settings: antiviral assay
[1] = test system: human coronavirus 229E (HCoV 229E); assay: Anti-HCoV 229E assay: reduction in virus-induced cytopathogenic effect; format: cell-based, human coronavirus 229E in MRC-5 human lung fibroblast; settings: MRC-5 cells, compound at 3 μg/mL (16: 6.7 μM), MOIs 0.01–0.001, 72 h, Figure 4 (n = 3)
[2] = test system: human coronavirus 229E (HCoV 229E); assay: Anti-HCoV 229E assay: reduction in viral titer; format: cell-based, human coronavirus 229E in MRC-5 human lung fibroblast; settings: MRC-5 cells, compound at 3 μg/mL, 72 h, Figure 3 (n = 1)
[3] = test system: SARS-CoV 3CL protease (3CLpro); settings: cited from earlier work
SARS-CoV-2 = test system: SARS-CoV-2; parameters: method as in earlier work; settings: cited from earlier work

Question: With `CC(=O)Oc1cc2c(cc1C(C)C)C=C[C@H]1C(C)(C)[C@@H](OC(C)=O)CC[C@]21C` [Compound 2, 3β,12-diacetoxyabieta-6,8,11,13-tetraene, reference compound] as the compound, how does the EC50 (SARS-CoV) read?
Answer: 1570 nM

Question: With `CC(C)c1cc2c(cc1O)[C@@]1(C)CCC[C@@](C)(CN3C(=O)c4cccc(F)c4C3=O)[C@@H]1CC2` [Compound 15, 12-Hydroxy-N,N-(3-fluorophthaloyl)dehydroabietylamine] as the compound, how does the “modification of the cell morphology” value (MRC-5 cells) read?
Answer: induced modification of the cell morphology

Question: Which “reduction in the viral-induced cytopathogenic effect (CPE)” value [1] does the source give for `C=C(CO)c1ccc2c(c1)CC[C@H]1[C@@](C)(C(=O)O)CCC[C@]21C` [Compound 7, jiadifenoic acid C, reference compound] here?
Answer: no activity

Question: Which “reduction in the viral titer” value [2] does the source give for `CC(C)c1cc2c(cc1O)[C@@]1(C)CCC[C@@](C)(CN3C(=O)c4ccc(F)cc4C3=O)[C@@H]1CC2` [Compound 16, 12-Hydroxy-N,N-(4-fluorophthaloyl)dehydroabietylamine] here?
Answer: approximately 2 log

Question: For `CC(C)c1cc2c(cc1O)[C@@]1(C)CCC[C@@](C)(CO)[C@@H]1CC2` [Compound 12], which “reduction in the viral titer” value [2] is on record?
Answer: ~0.5 log

Question: Which “reduction in the viral-induced cytopathogenic effect (CPE)” value [1] does the source give for `CC(C)c1cc2c(cc1O)[C@@]1(C)CCC[C@@](C)(CN)[C@@H]1CC2` [Compound 14, 12-hydroxydehydroabietylamine] here?
Answer: reduce the cytopathogenic effect

Question: For `CC(C)c1cc2c(cc1O)[C@@]1(C)CCCC(C)(C)[C@@H]1CC2` [Compound 1, (+)-ferruginol], which EC50 (SARS-CoV) is on record?
Answer: 1390 nM

Question: What about the “inhibition for SARS-CoV 3CL protease” value ([3]; below 100 μM) of the same compound?
Answer: did not show inhibition

Question: What about the IC50 [3] of the same compound?
Answer: 49.6 µM

Question: For `CC(C)c1cc2c(cc1O)[C@@]1(C)CCC[C@@](C)(CN3C(=O)c4ccccc4C3=O)[C@@H]1CC2` [Compound 3, 18-(phthalimid-2-yl) ferruginol], which “reduction in the viral titer” value [2] is on record?
Answer: important reductions in the viral titer

Question: And the “modification of the cell morphology” value (MRC-5 cells)?
Answer: induced modification of the cell morphology

Question: For `Cc1coc2c1C(=O)C(=O)c1c-2ccc2c1CCCC2(C)C` [tanshinone IIA], which “IC50 (anti-SARS-CoV-2 activity)” value (SARS-CoV-2) is on record?
Answer: 4.08 ng/µL (≈ 13.9 µM)
